From paper PMC9341091, “Design, synthesis, and molecular docking studies of diphenylquinoxaline-6-carbohydrazide hybrids as potent α-glucosidase inhibitors” (BMC Chemistry, 2022)
Values after ≈ are worked out from the molar mass of the structure shown. Like-named read-outs stand apart in the source and are kept apart here.

Experiments:
[1] = biological target: α-glucosidase from Saccharomyces cerevisiae (Saccharomyces cerevisiae, UniProt P53341); experiment: biochemical
Experimental: The α-glucosidase inhibitory effects of diphenylquinoxaline-6-carbohydrazide hybrids 7a–o were determined by previously reported method. […] Later on, 25 μL of the substrate (p-nitrophenyl glucopyranoside, 4 mM) was added to each well of the plate, and incubation was continued for 20 min at 37 ^◦C.

α-glucosidase [2] = biological target: α-glucosidase (Saccharomyces cerevisiae, UniProt P53341); experiment: Enzyme kinetic studies (Lineweaver–Burk plot, secondary plot); type: biochemical
Experimental: A Lineweaver–Burk plot was generated to identify the type of inhibition and the Michaelis–Menten constant (Km) value was determined from the plot between reciprocal of the substrate concentration (1/[S]) and reciprocal of enzyme rate (1/V) over various inhibitor concentrations. The experimental inhibitor constant (Ki) value was constructed by secondary plots of the inhibitor concentration [I] versus Km.

α-glucosidase [3] = biological target: α-glucosidase; parameters: method as in doi:10.1039/C9NJ02580D; details: compound A versus standard acarbose; cited from earlier work
α-glucosidase [4] = biological target: α-glucosidase; parameters: method as in PMID 24398385; details: cited from earlier work

Chain of α-glucosidase from Saccharomyces cerevisiae (P53341 whole entry): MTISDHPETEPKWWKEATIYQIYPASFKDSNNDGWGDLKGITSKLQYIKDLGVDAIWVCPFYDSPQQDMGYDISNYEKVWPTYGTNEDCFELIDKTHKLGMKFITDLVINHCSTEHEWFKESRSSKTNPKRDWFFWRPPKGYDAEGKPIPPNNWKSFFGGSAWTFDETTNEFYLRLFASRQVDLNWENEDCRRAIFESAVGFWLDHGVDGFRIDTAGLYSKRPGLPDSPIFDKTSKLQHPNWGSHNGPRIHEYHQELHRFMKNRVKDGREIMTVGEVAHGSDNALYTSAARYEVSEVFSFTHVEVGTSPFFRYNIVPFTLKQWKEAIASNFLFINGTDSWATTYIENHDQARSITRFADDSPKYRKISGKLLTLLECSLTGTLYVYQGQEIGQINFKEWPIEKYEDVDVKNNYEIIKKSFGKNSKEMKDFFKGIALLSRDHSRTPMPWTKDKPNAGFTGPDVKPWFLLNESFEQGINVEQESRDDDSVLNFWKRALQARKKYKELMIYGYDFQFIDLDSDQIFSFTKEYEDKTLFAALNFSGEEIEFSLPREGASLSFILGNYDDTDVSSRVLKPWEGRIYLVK
Chain of α-glucosidase (Saccharomyces cerevisiae, UniProt P53341) (P53341 whole entry): as above

Structure (SMILES)	melting point	IC50 [1]	other results
O=C(NN=Cc1ccccc1)c1ccc2nc(-c3ccccc3)c(-c3ccccc3)nc2c1 [7a, N'-benzylidene-2,3-diphenylquinoxaline-6-carbohydrazide]	230 to 232 °C	155 ± 3 µM	–
O=C(NN=Cc1ccccc1[N+](=O)[O-])c1ccc2nc(-c3ccccc3)c(-c3ccccc3)nc2c1 [7b, N'-(2-nitrobenzylidene)-2,3-diphenylquinoxaline-6-carbohydrazide]	> 250 °C	175 ± 5.9 µM	–
O=C(NN=Cc1cccc([N+](=O)[O-])c1)c1ccc2nc(-c3ccccc3)c(-c3ccccc3)nc2c1 [7c, N'-(3-nitrobenzylidene)-2,3-diphenylquinoxaline-6-carbohydrazide]	> 250 °C	279 ± 5.8 µM	–
O=C(NN=Cc1ccc([N+](=O)[O-])cc1)c1ccc2nc(-c3ccccc3)c(-c3ccccc3)nc2c1 [7d, N'-(4-nitrobenzylidene)-2,3-diphenylquinoxaline-6-carbohydrazide]	> 250 °C	240 ± 7.5 µM	–
O=C(NN=Cc1cccc(F)c1)c1ccc2nc(-c3ccccc3)c(-c3ccccc3)nc2c1 [7e, N'-(3-fluorobenzylidene)-2,3-diphenylquinoxaline-6-carbohydrazide]	> 250 °C	–	type of inhibition (α-glucosidase [2]; Lineweaver–Burk plot, Km increased, Vmax unchanged): competitive; Ki (α-glucosidase [2]; secondary plot of Km versus inhibitor concentration (0, 30, 70 and 110 µM), read-out: inhibition constant Ki): 107 µM; IC50 ([1]; in vitro α-glucosidase inhibition, substrate p-nitrophenyl glucopyranoside, mean ± SEM, at least three experiments, read-out: IC50): 111 ± 6 µM
O=C(NN=Cc1ccc(Cl)cc1)c1ccc2nc(-c3ccccc3)c(-c3ccccc3)nc2c1 [7f, N'-(4-chlorobenzylidene)-2,3-diphenylquinoxaline-6-carbohydrazide]	234 to 238 °C	260 ± 4.5 µM	–
COc1ccc(C=NNC(=O)c2ccc3nc(-c4ccccc4)c(-c4ccccc4)nc3c2)cc1 [7g, N'-(4-methoxybenzylidene)-2,3-diphenylquinoxaline-6-carbohydrazide]	> 250 °C	320 ± 4.9 µM	–
COc1cccc(C=NNC(=O)c2ccc3nc(-c4ccccc4)c(-c4ccccc4)nc3c2)c1[N+](=O)[O-] [7h, N'-(3-methoxy-2-nitrobenzylidene)-2,3-diphenylquinoxaline-6-carbohydrazide]	> 250 °C	305 ± 7.2 µM	–
O=C(NN=Cc1cc([N+](=O)[O-])ccc1Cl)c1ccc2nc(-c3ccccc3)c(-c3ccccc3)nc2c1 [7i, N'-(2-chloro-5-nitrobenzylidene)-2,3-diphenylquinoxaline-6-carbohydrazide]	> 250 °C	231 ± 5.5 µM	–
COc1cc(C=NNC(=O)c2ccc3nc(-c4ccccc4)c(-c4ccccc4)nc3c2)ccc1O [7j, N'-(4-hydroxy-3-methoxybenzylidene)-2,3-diphenylquinoxaline-6-carbohydrazide]	> 250 °C	358 ± 6.1 µM	–
COc1cc(/C=N/NC(=O)c2ccc3nc(-c4ccccc4)c(-c4ccccc4)nc3c2)cc(OC)c1OC [7k, (E)-2,3-diphenyl-N'-(3,4,5-trimethoxybenzylidene)quinoxaline-6-carbohydrazide]	–	> 750 µM	–
O=C(NN=Cc1cccc(Oc2ccccc2)c1)c1ccc2nc(-c3ccccc3)c(-c3ccccc3)nc2c1 [7l, N'-(3-phenoxybenzylidene)-2,3-diphenylquinoxaline-6-carbohydrazide]	> 250 °C	453 ± 4.7 µM	–
O=C(NN=Cc1cc2c(cc1[N+](=O)[O-])OCO2)c1ccc2nc(-c3ccccc3)c(-c3ccccc3)nc2c1 [7m, N'-((6-nitrobenzo[d][1,3]dioxol-5-yl)methylene)-2,3-diphenylquinoxaline-6-carbohydrazide]	> 250 °C	353.7 ± 3.5 µM	–
O=C(NN=Cc1cccc2ccccc12)c1ccc2nc(-c3ccccc3)c(-c3ccccc3)nc2c1 [7n, N'-(naphthalen-1-ylmethylene)-2,3-diphenylquinoxaline-6-carbohydrazide]	> 250 °C	388 ± 6.5 µM	–
O=C(NN=Cc1cccs1)c1ccc2nc(-c3ccccc3)c(-c3ccccc3)nc2c1 [7o, 2,3-diphenyl-N'-(thiophen-2-ylmethylene)quinoxaline-6-carbohydrazide]	242 to 246 °C	145 ± 5 µM	–
Cc1nc2ccccc2n(CC(=O)N/N=C/c2ccc(OCCc3cn(CN4CCOCC4)nn3)cc2)c1=O [compound A]	–	–	IC50 (α-glucosidase [3]): 21.92 µg/mL (≈ 41.3 µM)
O=C(N/N=C1/c2ccccc2-c2nc3ccccc3nc21)c1ccc(Br)cc1 [compound B]	–	–	IC50 (α-glucosidase [4]; compound B versus standard acarbose): 22.67 ± 0.1 µM
Cc1ccc(NC(=O)Cn2c(=O)c(C)nc3ccccc32)c([N+](=O)[O-])c1 [compound C]	–	–	IC50 (α-glucosidase [4]; compound C versus standard acarbose): 83.8 ± 0.89 µM
